Results taken from ChEMBL document CHEMBL3046358, “Multiple Pro-197 substitutions in the acetolactate synthase of rigid ryegrass (Lolium rigidum) and their impact on chlorsulfuron activity and plant growth” (Crop Prot, 2012).

Legend:
Lolium rigidum [1] = test: Herbicidal activity against Lolium rigidum accession A15 assessed as fresh weight reduction applied at 4 times pre-emergence recommended rate relative to untreated control; assay type: functional; design: scale not given: the % may be the effect or the level left
Lolium rigidum [2] = test: Herbicidal activity against Lolium rigidum accession A13 assessed as emergence rate applied at 4 times pre-emergence recommended rate relative to untreated control; assay type: functional
Lolium rigidum [3] = test: Herbicidal activity against Lolium rigidum accession A05 assessed as emergence rate applied at 4 times pre-emergence recommended rate relative to untreated control; assay type: functional
Lolium rigidum [4] = test: Herbicidal activity against Lolium rigidum accession A04 assessed as emergence rate applied at 4 times pre-emergence recommended rate relative to untreated control; assay type: functional
Lolium rigidum [5] = test: Herbicidal activity against Lolium rigidum accession A03 assessed as emergence rate applied at 4 times pre-emergence recommended rate relative to untreated control; assay type: functional
[6] = biological target: T1, Acetolactate synthase (Lolium rigidum) (UniProt A7XBP7); test: Resistance index, ratio of I50 for acetolactate synthase Ala-197/Ala-197 mutant in Lolium rigidum accession A19 leaves extracts to I50 for acetolactate synthase in Lolium rigidum accession A01 leaves extracts
T1 sequence (whole entry): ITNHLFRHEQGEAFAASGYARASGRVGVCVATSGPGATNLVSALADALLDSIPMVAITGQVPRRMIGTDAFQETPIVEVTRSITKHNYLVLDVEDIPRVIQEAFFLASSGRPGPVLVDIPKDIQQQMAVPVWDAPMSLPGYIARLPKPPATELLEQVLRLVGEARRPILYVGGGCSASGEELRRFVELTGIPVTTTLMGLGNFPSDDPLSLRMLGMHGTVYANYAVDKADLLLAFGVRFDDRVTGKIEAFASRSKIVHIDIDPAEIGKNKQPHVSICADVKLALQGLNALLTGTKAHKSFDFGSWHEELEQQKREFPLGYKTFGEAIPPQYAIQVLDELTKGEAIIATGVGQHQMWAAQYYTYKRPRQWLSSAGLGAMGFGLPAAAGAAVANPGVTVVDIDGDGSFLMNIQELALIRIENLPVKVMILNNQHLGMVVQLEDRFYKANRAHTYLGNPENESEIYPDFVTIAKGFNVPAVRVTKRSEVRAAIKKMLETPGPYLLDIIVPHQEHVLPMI

[7] = biological target: T1, Acetolactate synthase (Lolium rigidum); test: Resistance index, ratio of I50 for acetolactate synthase Leu-197/Leu-197 mutant in Lolium rigidum accession A08 leaves extracts to I50 for acetolactate synthase in Lolium rigidum accession A01 leaves extracts
[8] = biological target: T1, Acetolactate synthase (Lolium rigidum); test: Resistance index, ratio of I50 for acetolactate synthase Pro-197/Leu-197 mutant in Lolium rigidum accession A07 leaves extracts to I50 for acetolactate synthase in Lolium rigidum accession A01 leaves extracts
Acetolactate synthase [9] = biological target: T2, Acetolactate synthase (Lolium rigidum, UniProt A7XBP7); test: Inhibition of acetolactate synthase Ala-197/Ala-197 mutant in Lolium rigidum accession A20 leaves extracts by acetolactate production assay; settings: read-out: I50
Acetolactate synthase [10] = biological target: T2, Acetolactate synthase; test: Inhibition of acetolactate synthase Leu-197/Leu-197 mutant in Lolium rigidum accession A18 leaves extracts by acetolactate production assay; settings: read-out: I50
Acetolactate synthase [11] = biological target: Acetolactate synthase (Lolium rigidum, UniProt A7XBP7, P197R/P197S); test: Inhibition of acetolactate synthase Pro-197/Arg-197 or Pro-197/Ser-197 or Pro/Val or Ala/Leu mutant in Lolium rigidum accession A17 leaves extracts by acetolactate production assay; settings: read-out: I50
Lolium rigidum [12] = test: Herbicidal activity against Lolium rigidum accession A04 assessed as emergence rate applied at 1 times pre-emergence recommended rate applied in pots where terbufos had been incorporated into the soil relative to untreated control; assay type: functional
Lolium rigidum [13] = test: Herbicidal activity against Lolium rigidum accession A08 assessed as emergence rate applied at 1 times pre-emergence recommended rate relative to untreated control; assay type: functional
Lolium rigidum [14] = test: Herbicidal activity against Lolium rigidum accession A06 assessed as emergence rate applied at 1 times pre-emergence recommended rate relative to untreated control; assay type: functional
Lolium rigidum [15] = test: Herbicidal activity against Lolium rigidum accession A05 assessed as emergence rate applied at 1 times pre-emergence recommended rate relative to untreated control; assay type: functional
Lolium rigidum [16] = test: Herbicidal activity against Lolium rigidum accession A04 assessed as emergence rate applied at 1 times pre-emergence recommended rate relative to untreated control; assay type: functional
Lolium rigidum [17] = test: Herbicidal activity against Lolium rigidum accession A03 assessed as emergence rate applied at 1 times pre-emergence recommended rate relative to untreated control; assay type: functional
Lolium rigidum [18] = test: Herbicidal activity against Lolium rigidum accession A01 assessed as emergence rate applied at 1 times pre-emergence recommended rate relative to untreated control; assay type: functional
Acetolactate synthase [19] = biological target: T2, Acetolactate synthase; test: Inhibition of acetolactate synthase Pro-197/Pro-197 mutant in Lolium rigidum accession A09 leaves extracts by acetolactate production assay; settings: read-out: I50
Acetolactate synthase [20] = biological target: T3, Acetolactate synthase (Lolium rigidum, UniProt A7XBP7); test: Inhibition of acetolactate synthase in Lolium rigidum accession A01 leaves extracts by acetolactate production assay; settings: read-out: I50
T3 sequence (A7XBP7 whole entry): T1 sequence (whole entry)

Lolium rigidum [21] = test: Herbicidal activity against Lolium rigidum accession A12 assessed as emergence rate applied at 1 times pre-emergence recommended rate applied in pots where terbufos had been incorporated into the soil relative to untreated control; assay type: functional
Lolium rigidum [22] = test: Herbicidal activity against Lolium rigidum accession A07 assessed as emergence rate applied at 1 times pre-emergence recommended rate applied in pots where terbufos had been incorporated into the soil relative to untreated control; assay type: functional
Lolium rigidum [23] = test: Herbicidal activity against Lolium rigidum accession A15 assessed as emergence rate applied at 1 times pre-emergence recommended rate applied in pots where terbufos had been incorporated into the soil relative to untreated control; assay type: functional
Lolium rigidum [24] = test: Herbicidal activity against Lolium rigidum accession A13 assessed as emergence rate applied at 1 times pre-emergence recommended rate applied in pots where terbufos had been incorporated into the soil relative to untreated control; assay type: functional
Lolium rigidum [25] = test: Herbicidal activity against Lolium rigidum accession A02 assessed as fresh weight reduction applied at 4 times pre-emergence recommended rate relative to untreated control; assay type: functional; design: scale not given: the % may be the effect or the level left
Lolium rigidum [26] = test: Herbicidal activity against Lolium rigidum accession A13 assessed as fresh weight reduction applied at 1 times pre-emergence recommended rate applied in pots where terbufos had been incorporated into the soil relative to untreated control; assay type: functional; design: scale not given: the % may be the effect or the level left
Lolium rigidum [27] = test: Herbicidal activity against Lolium rigidum accession A12 assessed as fresh weight reduction applied at 1 times pre-emergence recommended rate applied in pots where terbufos had been incorporated into the soil relative to untreated control; assay type: functional; design: scale not given: the % may be the effect or the level left
Lolium rigidum [28] = test: Herbicidal activity against Lolium rigidum accession A10 assessed as fresh weight reduction applied at 1 times pre-emergence recommended rate applied in pots where terbufos had been incorporated into the soil relative to untreated control; assay type: functional; design: scale not given: the % may be the effect or the level left
Lolium rigidum [29] = test: Herbicidal activity against Lolium rigidum accession A14 assessed as fresh weight reduction applied at 1 times pre-emergence recommended rate relative to untreated control; assay type: functional; design: scale not given: the % may be the effect or the level left
Lolium rigidum [30] = test: Herbicidal activity against Lolium rigidum accession A10 assessed as fresh weight reduction applied at 1 times pre-emergence recommended rate relative to untreated control; assay type: functional; design: scale not given: the % may be the effect or the level left
Lolium rigidum [31] = test: Herbicidal activity against Lolium rigidum accession A08 assessed as fresh weight reduction applied at 1 times pre-emergence recommended rate relative to untreated control; assay type: functional; design: scale not given: the % may be the effect or the level left
Lolium rigidum [32] = test: Herbicidal activity against Lolium rigidum accession A05 assessed as fresh weight reduction applied at 1 times pre-emergence recommended rate relative to untreated control; assay type: functional; design: scale not given: the % may be the effect or the level left
Lolium rigidum [33] = test: Herbicidal activity against Lolium rigidum accession A04 assessed as fresh weight reduction applied at 1 times pre-emergence recommended rate relative to untreated control; assay type: functional; design: scale not given: the % may be the effect or the level left
Lolium rigidum [34] = test: Herbicidal activity against Lolium rigidum accession A02 assessed as fresh weight reduction applied at 1 times pre-emergence recommended rate relative to untreated control; assay type: functional; design: scale not given: the % may be the effect or the level left

SMILES: COc1nc(C)nc(NC(=O)NS(=O)(=O)c2ccccc2Cl)n1 [CHLORSULFURON]
- Activity (Lolium rigidum [1]): 98%
- Activity (Lolium rigidum [2]): 1%
- Activity (Lolium rigidum [3]): 90%
- Activity (Lolium rigidum [4]): 1%
- Activity (Lolium rigidum [5]): 1%
- Ratio [6]: 620
- Ratio [7]: 564
- Ratio [8]: 61
- IC50 (Acetolactate synthase [9]): 1090 nM
- IC50 (Acetolactate synthase [10]): 1620 nM
- IC50 (Acetolactate synthase [11]): 870 nM
- Activity (Lolium rigidum [12]): 2%
- Activity (Lolium rigidum [13]): 88%
- Activity (Lolium rigidum [14]): 89%
- Activity (Lolium rigidum [15]): 97%
- Activity (Lolium rigidum [16]): 2%
- Activity (Lolium rigidum [17]): 1%
- Activity (Lolium rigidum [18]): 2%
- IC50 (Acetolactate synthase [19]): 30 nM
- IC50 (Acetolactate synthase [20]): 30 nM
- Activity (Lolium rigidum [21]): 0%
- Activity (Lolium rigidum [22]): 85%
- Activity (Lolium rigidum [23]): 0%
- Activity (Lolium rigidum [24]): 0%
- Activity (Lolium rigidum [25]): 97%
- Activity (Lolium rigidum [26]): 100%
- Activity (Lolium rigidum [27]): 100%
- Activity (Lolium rigidum [28]): 97%
- Activity (Lolium rigidum [29]): 94%
- Activity (Lolium rigidum [30]): 76%
- Activity (Lolium rigidum [31]): 9%
- Activity (Lolium rigidum [32]): 0%
- Activity (Lolium rigidum [33]): 96%
- Activity (Lolium rigidum [34]): 96%
